Reference: paper PMC3702004, “Comparison of Intake and Systemic Relative Effect Potencies of Dioxin-like Compounds in Female Mice after a Single Oral Dose” (Environmental Health Perspectives, 2013)

Legend:
Cyp1a2 mRNA in liver = test: Cyp1a2 gene expression in liver (real-time PCR); assay type: in vivo, female C57BL/6 mice; conditions: for BMR20TCDD Liver Cyp1a2 mRNA: 3 days after single oral dose; for REP Liver Cyp1a2 mRNA: relative to TCDD
Method: (§1) Animals. Eight-week-old female C57BL/6 mice (Harlan laboratories, Venray, the Netherlands) were randomly assigned to treatment groups (six animals per group) and allowed to acclimate for 1.5 weeks. The animals were housed in groups in standard cages and conditions (23 ± 2°C, 50–60% relative humidity, 12-hr dark/light cycle) with free access to food and water. Mice received a single dose of test compound by oral gavage at a dosing volume of 10 mL/kg body weight (BW). Mice treated with corn oil vehicle (10 mL/kg BW) served as controls. For each congener, five different doses were administered, ranging from 0.5–100 μg/kg BW (TCDD) to 5,000–500,000 µg/kg BW (PCB-153). Detailed information on doses is provided in Supplemental Material, Table S1 (http://dx.doi.org/10.1289/ehp.1206336). On day 3 after dosing, animals were euthanized by CO2/O2 asphyxiation, and blood was immediately collected from the abdominal aorta. The liver, thymus, spleen, and adipose tissue were removed, weighed (liver, thymus, and spleen), snap frozen, and stored at –80°C. All animal treatments were performed with permission of the Animal Ethical Committee (DEC Utrecht) and performed according to the [Law on Animal Experiments (1977)]. Animals were treated humanely and with regard for alleviation of suffering.
(§2) RNA isolation and quantitative real-time polymerase chain reaction (PCR). Total RNA was isolated from liver and PBLs using a QIAGEN RNeasy kit (QIAGEN). Purity and concentration of the isolated RNA was determined by measuring the absorbance ratio at 260/280 nm and 230/260 nm with a Nanodrop 2000 spectrophotometer (Thermo Scientific, Asheville, NC, USA). RNA was reverse transcribed to complementary DNA (cDNA) using the iScript cDNA synthesis Kit (Bio-Rad, Veenendaal, the Netherlands). Quantitative real-time PCR analyses were performed using the iQ Real-Time PCR Detection System with SYBR green (Bio-Rad). Amplification reactions were set up with […] containing 12.5 μL iQ SYBR Green Supermix (Bio-rad), 0.5 μL distilled H2O, 1 μL (10 μM) forward primer, 1 μL (10 μM) reverse primer, and 10 μL first strand cDNA (10X diluted). Primer sequences were as follows: Cyp1a1: forward-5´-GGTTAACCATGACCGGGAACT-3´ and reverse-5´-TGCCCAAACCAAAGAGAGTGA-3´ ([Schulz et al. 2012]); Cyp1a2: forward-5´-ACATTCCCAAGGAGCGCTGTATCT-3´ and reverse-5´-GTCGATGGCCGAGTTGTTATTGGT-3´ ([Flaveny et al. 2010]); Cyp1b1: forward-5´-GTGGCTGCTCATCCTCTTTACC-3´ and reverse-5´-CCCACAACCTGGTCCAACTC-3´ ([Berge et al. 2004]); β-actin: forward-5´-ATGCTCCCCGGGCTGTAT-3´ and reverse-5´-CATAGGAGTCCTTCTGACCCATTC-3´ ([Schulz et al. 2012]). All primers were run through the National Center for Biotechnology Information Primer-BLAST database (http://www.ncbi.nlm.nih.gov/tools/primer-blast/) to confirm specificity and validate for optimal annealing temperature (60°C for all primers) and efficiency. The efficiency of all primer pairs was 98–102% (tested at 60°C). The following program was used for denaturation and amplification of cDNA: 3 min at 95°C, followed by 40 cycles of 15 sec at 95°C and 45 sec at 60°C. Gene expression for each sample was expressed as threshold cycle (Ct), normalized to the reference gene β-actin (ΔCt). We calculated fold induction relative to the control group.
Data analysis. We obtained concentration–response curves using a sigmoidal dose–response nonlinear regression curve fit with variable slope (GraphPad Prism 6.01; GraphPad Software Inc., San Diego, CA, USA):
In this Hill equation, y is the dependent variable (EROD activity or fold induction of mRNA levels), x the independent variable (administered or systemic dose), E0 is the estimated background response level, Emax is the maximum response, b is the estimated median effective concentration (EC50), and n is the shaping parameter of the Hill curve.
Using the congener-specific BMR20TCDD concentration, REPs were calculated relatively to TCDD: […]

Cyp1b1 mRNA in PBLs = test: Cyp1b1 gene expression in peripheral blood lymphocytes; assay type: in vivo, female C57BL/6 mice; conditions: for BMR20TCDD PBLs Cyp1b1 mRNA: 3 days after single oral dose; for REP PBLs Cyp1b1 mRNA: relative to TCDD; for Effect on Cyp1b1 mRNA in PBLs: single oral dose
Method: as §1
Plasma and PBL isolation. Blood from two mice was pooled (total volume of approximately 1.4 mL); plasma and PBLs were then isolated using Ficoll Paque gradient (GE Healthcare Europe, Diegem, Belgium). Plasma samples were stored at –80°C until compound analysis. Isolated lymphocytes were lysed with RLT buffer (QIAGEN, Venlo, the Netherlands) as described in the QIAGEN RNAeasy kit protocol and stored at –80°C until use.
as §2
Data analysis. We obtained concentration–response curves using a sigmoidal dose–response nonlinear regression curve fit with variable slope (GraphPad Prism 6.01; GraphPad Software Inc., San Diego, CA, USA): […]

[1] = dose metric Adm dose (µg/kg BW)
[2] = dose metric Syst adipose (ng/g lipid)
[3] = dose metric Syst liver (ng/g lipid)
[4] = dose metric Syst liver (ng/g liver)
[5] = dose metric Syst plasma (ng/g lipid)

Row | SMILES | BMR20TCDD Liver Cyp1a2 mRNA (Cyp1a2 mRNA in liver; dose metric Adm dose) | BMR20TCDD Liver Cyp1a2 mRNA (Cyp1a2 mRNA in liver; dose metric Syst adipose) | BMR20TCDD Liver Cyp1a2 mRNA (Cyp1a2 mRNA in liver; dose metric Syst plasma) | REP Liver Cyp1a2 mRNA (Cyp1a2 mRNA in liver; [1]) | REP Liver Cyp1a2 mRNA (Cyp1a2 mRNA in liver; [2]) | REP Liver Cyp1a2 mRNA (Cyp1a2 mRNA in liver; [3]) | REP Liver Cyp1a2 mRNA (Cyp1a2 mRNA in liver; [4]) | REP Liver Cyp1a2 mRNA (Cyp1a2 mRNA in liver; [5]) | BMR20TCDD PBLs Cyp1b1 mRNA (Cyp1b1 mRNA in PBLs; dose metric Adm dose) [µg/kg BW] | BMR20TCDD PBLs Cyp1b1 mRNA (Cyp1b1 mRNA in PBLs; dose metric Syst plasma) [ng/g lipid] | REP PBLs Cyp1b1 mRNA (Cyp1b1 mRNA in PBLs; [1]) | REP PBLs Cyp1b1 mRNA (Cyp1b1 mRNA in PBLs; [5]) | Effect on Cyp1b1 mRNA in PBLs (Cyp1b1 mRNA in PBLs; day 3) | Induction of Cyp1b1 mRNA in PBLs, of the maximal induction of TCDD (Cyp1b1 mRNA in PBLs; highest dose tested, day 3) [%]
1 | Clc1cc2oc3c(Cl)c(Cl)c(Cl)cc3c2cc1Cl [Congener 4-PeCDF, 2,3,4,7,8-pentachlorodibenzofuran] | 8.83 µg/kg BW | 6.53 ng/g lipid | 8.01 ng/g lipid | 0.05 | 0.3 | 0.03 | 0.04 | 0.2 | 514 | 212 | 0.04 | 0.3 | dose-dependently induced | –
2 | Clc1ccc(-c2cc(Cl)c(Cl)cc2Cl)cc1Cl [PCB-118, 2,3´,4,4´,5-pentachlorobiphenyl] | 15,522 µg/kg BW | 117,517 ng/g lipid | 103,230 ng/g lipid | 0.00003 | 0.00001 | 0.0002 | 0.0003 | 0.00002 | – | – | – | – | did not induce | –
3 | Clc1ccc(-c2cc(Cl)c(Cl)c(Cl)c2)cc1Cl [PCB-126, 3,3´,4,4´,5-pentachlorobiphenyl] | 87.4 µg/kg BW | 120 ng/g lipid | 135 ng/g lipid | 0.005 | 0.01 | 0.002 | 0.003 | 0.01 | – | – | – | – | – | 3.5
4 | Clc1cc(Cl)c(-c2cc(Cl)c(Cl)cc2Cl)cc1Cl [PCB-153, 2,2´,4,4´,5,5´-hexachlorobiphenyl] | – | – | – | – | – | – | – | – | – | – | – | – | did not induce | –
5 | Clc1ccc(-c2cc(Cl)c(Cl)c(Cl)c2Cl)cc1Cl [PCB-156, 2,3,3´,4,4´,5-hexachlorobiphenyl] | 12,085 µg/kg BW | 22,134 ng/g lipid | 60,702 ng/g lipid | 0.00003 | 0.00008 | 0.0003 | 0.0006 | 0.00003 | – | – | – | – | did not induce | –
6 | Clc1cc2c(cc1Cl)Oc1c(cc(Cl)c(Cl)c1Cl)O2 [PeCDD, 1,2,3,7,8-pentachlorodibenzodioxin] | 0.56 µg/kg BW | 1.20 ng/g lipid | 2.36 ng/g lipid | 0.7 | 1 | 0.5 | 0.6 | 0.8 | 51.8 | 63.8 | 0.4 | 0.8 | dose-dependently induced | –
7 | Clc1cc2c(cc1Cl)Oc1cc(Cl)c(Cl)cc1O2 [TCDD, 2,3,7,8-tetrachlorodibenzodioxin, reference compound] | 0.41 µg/kg BW | 1.73 ng/g lipid | 1.85 ng/g lipid | 1 | 1 | 1 | 1 | 1 | 20.9 | 53.5 | 1 | 1 | dose-dependently induced | –
